# Measurements from patent publication US7183385B2, “Phospho-specific antibodies to Flt3 and uses thereof” (Cell Signaling Technology, Inc., priority 2002, dated 2007).
# Target: T1, constitutively active Flt3 in EOL-1 cells (Homo sapiens, UniProt P36888)
# T1 construct: expresses an endogenous, constitutively active Flt3; endogenous in cells; host or cells: EOL-1 hematopoietic cell line
# T1 sequence (P36888 27-993): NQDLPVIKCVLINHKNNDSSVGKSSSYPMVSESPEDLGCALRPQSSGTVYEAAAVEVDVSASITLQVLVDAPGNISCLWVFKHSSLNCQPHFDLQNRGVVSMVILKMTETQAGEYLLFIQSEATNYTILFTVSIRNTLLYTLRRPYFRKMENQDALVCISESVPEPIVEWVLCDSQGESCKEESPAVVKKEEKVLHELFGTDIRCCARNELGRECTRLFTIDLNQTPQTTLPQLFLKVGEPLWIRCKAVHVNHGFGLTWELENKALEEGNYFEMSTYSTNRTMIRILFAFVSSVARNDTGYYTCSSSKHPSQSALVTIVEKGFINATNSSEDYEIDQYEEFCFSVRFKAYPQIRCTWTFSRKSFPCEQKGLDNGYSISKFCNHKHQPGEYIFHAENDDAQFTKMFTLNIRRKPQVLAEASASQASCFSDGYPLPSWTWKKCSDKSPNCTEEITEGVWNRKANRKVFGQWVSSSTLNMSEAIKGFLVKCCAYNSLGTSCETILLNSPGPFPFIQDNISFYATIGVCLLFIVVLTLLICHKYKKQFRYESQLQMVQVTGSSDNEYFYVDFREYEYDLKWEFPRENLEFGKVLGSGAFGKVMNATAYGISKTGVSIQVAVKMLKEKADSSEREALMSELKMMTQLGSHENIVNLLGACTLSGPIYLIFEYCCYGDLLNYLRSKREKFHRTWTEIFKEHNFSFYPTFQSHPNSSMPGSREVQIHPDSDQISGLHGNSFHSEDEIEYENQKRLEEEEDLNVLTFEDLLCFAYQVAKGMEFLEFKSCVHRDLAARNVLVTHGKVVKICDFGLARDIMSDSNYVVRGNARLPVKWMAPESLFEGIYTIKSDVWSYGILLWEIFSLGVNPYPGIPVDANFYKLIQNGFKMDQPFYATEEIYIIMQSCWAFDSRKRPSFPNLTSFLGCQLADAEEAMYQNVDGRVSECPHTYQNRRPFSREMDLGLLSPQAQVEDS
# Assay: Flt3 inhibitor effect on phospho-Flt3(Tyr591) staining in EOL-1 cells by flow cytometry
# Format: cell-based
# Settings: serum-starved EOL-1 cells, inhibitor 4 hours at 37° C.; FIG. 6
# Description: Flt3(Tyr591) phosphospecific monoclonal antibody CST #25-54 was used in flow cytometry to detect phospho-Flt3(Tyr591) in the EOL-1 hematopoietic cell line that expresses an endogenous, constitutively active Flt3. Serum-starved cells were incubated with or without the small molecule Flt3 inhibitor AG1296 for 4 hours at 37° C. The cells then were fixed with 2% paraformaldehyde for 10 minutes at 37° C. followed by cell permeabilization 90% with methanol for 30 minutes on ice. The fixed cells were then stained with the Alexa 488-conjugated Flt3 primary antibody for 1 hour at room temperature. The cells were then analyzed on a Beckman Coulter EPICS-XL flow cytometer.
compound,measurement,value
COc1cc2ncc(-c3ccccc3)nc2cc1OC [AG1296],Activity against Flt3 (in words),active against Flt3
same,Population of cells showing less staining with the phospho-Flt3(Tyr591) antibody in the presence of the drug,approximately 30 % of the total cells
